Measured values published in patent publication US20020164368A1, “Male contraceptive method and composition” (priority 2000, published 2002).

Columns and labels:
[1] = target: T1, Testicular bovine hyaluronidase (Bos taurus, UniProt Q2YDK3); assay: Hyaluronidase inhibition in vitro (chondroitin sulfate agar plate); format: biochemical
T1 construct: Testicular bovine hyaluronidase (Sigma Chemical Company); purchased Sigma Chemical Company; host or cells: bovine testes
T1 sequence (Q2YDK3 36-553): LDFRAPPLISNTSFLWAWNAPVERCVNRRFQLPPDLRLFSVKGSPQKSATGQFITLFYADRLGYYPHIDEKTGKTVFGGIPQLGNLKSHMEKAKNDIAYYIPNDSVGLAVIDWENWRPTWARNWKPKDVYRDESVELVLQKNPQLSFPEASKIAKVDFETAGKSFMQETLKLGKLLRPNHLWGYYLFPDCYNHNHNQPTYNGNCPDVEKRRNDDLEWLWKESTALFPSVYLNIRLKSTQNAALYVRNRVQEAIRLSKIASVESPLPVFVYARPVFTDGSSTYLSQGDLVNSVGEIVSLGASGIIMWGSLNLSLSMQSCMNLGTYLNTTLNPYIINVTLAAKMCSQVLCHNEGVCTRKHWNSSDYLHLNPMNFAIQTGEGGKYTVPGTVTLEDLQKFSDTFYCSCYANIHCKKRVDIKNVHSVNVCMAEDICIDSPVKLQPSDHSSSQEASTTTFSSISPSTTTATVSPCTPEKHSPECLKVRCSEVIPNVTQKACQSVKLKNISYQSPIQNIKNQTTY
Experimental: The inhibition of hyaluronidase was assessed using chondroitin sulfate as the enzyme substrate according to the following procedure. Agar plates containing chondroitin sulfate (0.1 percent) were prepared by the following method: water solutions of I percent agarose, 2 M sodium chloride (0.1 vol.), 1 M sodium acetate (pH 5.0, 0.1 vol), and sodium azide (0.5 mg/ml, 0.1 vol.) qe mixed and the mixture is brought to the boiling temperature. After cooling to about 65° C., a solution of chondroitin sulfate (10 mgtml, 0.1 vol.) is added. After cooling to about 45° C., the resulting mixture (20 ml) is poured onto a petri dish. The plates are allowed to cool to room temperature. A well 2 mm in diameter is then cut in the agar surface. […] A control using only the buffer solution without added test compound is also run. The plates are then incubated overnight (about 16 hours) at 37° C. The zones of hydrolysis of chondroitin sulfate by hyaluronidase are visualized by flooding the plate with 10 percent cetyl trimethyl ammonium bromide. The area of the zone is logarithmically proportional to the concentration of hyaluronidase. Inhibitor activity is determined by comparing the area of hydrolysis from the test compound to the area of hydrolysis from the control. The results are expressed as percent inhibition calculated as follows: [formula]

[2] = target: T2, Acrosin (purified from boar sperm) (Sus scrofa, UniProt P08001); assay: Acrosin inhibition in vitro (BAPNA substrate); format: biochemical; details: for Inhibition (units/mg): Other salts ROSO3M, Conc. of Test Sol. 10 mg/ml
T2 construct: Acrosin (200 μl, purified from boar sperm); from tissue; host or cells: boar sperm
T2 sequence (P08001 17-415): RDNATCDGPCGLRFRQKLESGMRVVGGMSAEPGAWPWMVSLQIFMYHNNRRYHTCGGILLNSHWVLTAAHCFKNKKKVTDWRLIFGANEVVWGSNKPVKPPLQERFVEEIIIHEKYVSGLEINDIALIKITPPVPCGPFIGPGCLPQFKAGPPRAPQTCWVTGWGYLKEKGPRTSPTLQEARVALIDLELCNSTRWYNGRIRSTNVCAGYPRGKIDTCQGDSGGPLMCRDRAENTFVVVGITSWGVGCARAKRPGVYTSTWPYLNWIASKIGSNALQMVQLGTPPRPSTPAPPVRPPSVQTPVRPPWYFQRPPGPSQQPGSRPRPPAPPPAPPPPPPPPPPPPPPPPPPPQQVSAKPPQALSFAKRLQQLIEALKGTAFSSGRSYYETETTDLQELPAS
Experimental: The inhibition of acrosin is assessed in vitro using benzoyl arginine p-nitroanilide (BAPNA) as the enzyme substrate according to the following procedure. Acrosin (200 μl, purified from boar sperm) and a solution of the test compound (200 μl, 10 mg/ml., or 50 μl, 1 mg/ml) in 0.05 M triethanolamine buffer, pH 7.8, are incubated at room temperature for 5 minutes. A control using the buffer solution without the test compound added is also run. A 200 μl-sample of the incubation mixture is then withdrawn and is added to a cuvettecontaining BAPNA (1 ml) and triethanolamine buffer (2 ml). The mixture is stirred and placed in a Gilford recording spectrophotometer. The increase in optical density at 383 mn is measured. One unit of acrosin activity is defined as the amount of acrosin which will cause an increase in optical density at 383 mn of 0.001/minute. One unit of inhibitory activity is defined as the amount of inhibitor which will cause a reduction in the increase in optical density at 383 nm of 0.001/minute.

[3] = system: Dutch Belted male rabbits of proven fertility; assay: Antifertility effects in vivo, oral dosing of male rabbits; design: species or system rabbit; details: administered to male rabbits, procedures of Example 4
Experimental: The animals (of proven fertility) are then bred and the genital system of the females is examined to determine the number of embryos.
Dutch Belted male rabbits of proven fertility were randomly selected. They were given 10 mg/kg tetradecyl sodium sulfate suspended in Ca++ free Ringer's solution by gavage. Control animals were given Ca++ free Ringer's solution by gavage. The male rabbits were dosed each day for 3 days and they were bred to females 2 hours after dosing and again 8 hours after dosing. The female rabbits were then given 100 IU human chorionic gonadotrophin (HCG) to stimulate ovulation. Twenty four hours after the last dose of tetradecyl sodium sulfate the male rabbits were bred and the females treated as before. After twelve days the female rabbits were sacrificed and examined for embryos.

[4] = Conc. of Test Solution 10 Mg/ml
[5] = Other salts ROSO3M, Conc. of Test Sol. 10 (mg/ul)

Row | Compound | % Inhibition ([1]; Conc. of Test Solution 1 Mg/ml) [%] | other results
1 | CCCCCCCCCC(CCCCCC)OS(=O)(=O)O (stereo not shown) [Compound 7-hexadecyl] | 0 | 
2 | CCCCCCCCCCC(CCC)OS(=O)(=O)[O-].[Na+] (stereo not shown) [Compound 4-tetradecyl] | 0 | 
3 | CC(C)CCCC(C)CCOS(=O)(=O)O (stereo not shown) [tetrahydrogeranyl] | 0 | 
4 | CCCCCCCCCCCCCCCOS(=O)(=O)O [n-pentadecyl] |  | % Inhibition [1, 4]: 60%
5 | O=S(=O)([O-])Oc1ccc(OS(=O)(=O)[O-])c2ccccc12.[Na+].[Na+] [Compound 28] |  | acrosin inhibition activity (in words) [2]: The following compounds have also been found to have acrosin inhibition
6 | CCCCCCCCCCCCCCCCOS(=O)(=O)O [n-hexadecyl] |  | % Inhibition [1, 4]: 75%
7 | CCCCCCCCCCC(CCCCCCCC)COS(=O)(=O)O (stereo not shown) [2-octyldodecyl] | 0 | 
8 | CCCCCCCCCCCCCCCCCOS(=O)(=O)O [n-heptadecyl] |  | % Inhibition [1, 4]: 23%
9 | CCCCCCCCC(CCCCCCC)OS(=O)(=O)O (stereo not shown) [Compound 8-hexadecyl] | 0 | 
10 | CCCCCCCCCCCCCCCCCCCCCCOS(=O)(=O)O [n-docosyl] | 0 | 
11 | CCCCCCCCCCCCC(C)OS(=O)(=O)O (stereo not shown) [Compound 2-tetradecyl] | 100 | 
12 | CCCCCCCC(CCCCCC)OS(=O)(=O)O (stereo not shown) [Compound 7-tetradecyl] | 0 | 
13 | CCCCCCCCCCCCOS(=O)(=O)O.OCCNCCO [CH3(CH2)11— diethanol-ammonium] |  | % Inhibition [1, 5]: 100%; Inhibition (units/mg) [2]: 90,000 units/mg
14 | CCCCCCCCCCCCOS(=O)(=O)O.OCCN(CCO)CCO [CH3(CH2)11— triethanol-ammonium] |  | % Inhibition [1, 5]: 100%; Inhibition (units/mg) [2]: 90,000 units/mg
15 | CCCCCCCCCCCOS(=O)(=O)O [n-hendecyl] |  | % Inhibition [1, 4]: 100%
16 | CCCCCCCCCCCCCCCCCCOS(=O)(=O)O [n-octadecyl] |  | % Inhibition [1, 4]: 30%

Row | Compound | % Inhibition ([1]; Conc. of Test Solution 1 Mg/ml) [%] | other results
17 | a ethyl a sulfodocosanoate [Compound 31] |  | activity as male contraceptives [3]: activity as male contraceptives
18 | CCCCC/C=C\C/C=C\CCCCCCCCOS(=O)(=O)O [linoleyl] | 0 | 
19 | CCCCCCCCCC(CCCCCCCC)OS(=O)(=O)O (stereo not shown) [Compound 9-octadecyl] | 7 | 
20 | CCCCCCCCCCCCCCCCCCCCOS(=O)(=O)O [n-eicosyl] |  | % Inhibition [1, 4]: 0%
21 | CC(C)CCCC(C)CCCC(C)CCOS(=O)(=O)[O-].[Na+] (stereo not shown) [3,7,11-trimethyldodecyl] | 39 | 
22 | CCCCCCCCC(CCCCC)OS(=O)(=O)O (stereo not shown) [Compound 6-tetradecyl] | 12 | 
23 | CCCCCCCCCCCCCOS(=O)(=O)O [n-tridecyl] |  | % Inhibition [1, 4]: 80%
24 | CCCCCCCCCCCCCCCCCCCCCCCCOS(=O)(=O)O [n-tetracosyl] | 0 | 
25 | CCCC/C=C/CCCCCCCCOS(=O)(=O)[O-].[Na+] [myristeladyl] | 13 | 
26 | CC(C)CCCCCCCCCCCOS(=O)(=O)O [12-methyltridecyl] | 7 | 
27 | CCCC/C=C\CCCCCCCCOS(=O)(=O)O [myristoleyl] | 13 | 
28 | CCCCCCCC/C=C\CCCCCCCCOS(=O)(=O)O [oleyl] | 0 | 
29 | CCCCCCCCCCCCOS(=O)(=O)[O-].[Na+] [n-dodecyl] |  | % Inhibition [1, 4]: 71%; Inhibition (units/mg.) [2, 4]: 0 units/mg.
30 | CCCCCCCCCCCCCCCCCCCCCCCCCCCOS(=O)(=O)O [n-heptacosyl] | 0 | 
31 | O=S(=O)([O-])Oc1c[nH]c2ccccc12.[Na+] [Compound 29] |  | acrosin inhibition activity (in words) [2]: The following compounds have also been found to have acrosin inhibition
